Here are results for 18 compounds from PubChem BioAssay AID248 (DTP/NCI, 2004).

“And” between values parts separate entries of the source, which are not always exact repeats. Identical values can stand only once. Inconclusive results and toxic doses are left out.

This experiment deals with L1210 leukemia ip in BDF1 mice, survival T/C. As to the kind of experiment: NCI In Vivo Anticancer Drug Screen. Data for tumor model L1210 Leukemia (intraperitoneal) in B6D2F1 (BDF1) mice. Conditions: endpoint: mean survival time, higher = longer survival. The essentials:
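Survival endpoint. Drug-treated group vs vehicle group, expressed as T divided by C. Tumor passaged by transplantation.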

[1] abbreviates: dose: 50.0 mg/kg/injection, schedule: Q01DX009 (ip), vehicle: Klucel (hydroxypropylcellulose) (HPC).
The mark [2] stands for this setting: dose: 50.0 mg/kg/injection, schedule: Q04DX003 (ip), vehicle: Klucel (hydroxypropylcellulose) (HPC).
Where [3] appears, read: dose: 100.0 mg/kg/injection, schedule: Q01DX009 (ip), vehicle: Klucel (hydroxypropylcellulose) (HPC).
[4] abbreviates: dose: 100.0 mg/kg/injection, schedule: Q04DX003 (ip), vehicle: Klucel (hydroxypropylcellulose) (HPC).
Where [5] appears, read: dose: 200.0 mg/kg/injection, schedule: Q01DX009 (ip), vehicle: Klucel (hydroxypropylcellulose) (HPC).
Where [6] appears, read: dose: 200.0 mg/kg/injection, schedule: Q04DX003 (ip), vehicle: Klucel (hydroxypropylcellulose) (HPC).
The mark [7] stands for this setting: dose: 400.0 mg/kg/injection, schedule: Q04DX003 (ip), vehicle: Klucel (hydroxypropylcellulose) (HPC).
Where [8] appears, read: dose: 400.0 mg/kg/injection, schedule: Q01DX009 (ip), vehicle: Klucel (hydroxypropylcellulose) (HPC).
[9] abbreviates: dose: 100.0 mg/kg/injection, schedule: Q01DX001 (ip), vehicle: Klucel (hydroxypropylcellulose) (HPC).
Setting [10] is: dose: 200.0 mg/kg/injection, schedule: Q01DX001 (ip), vehicle: Klucel (hydroxypropylcellulose) (HPC).
Where [11] appears, read: dose: 400.0 mg/kg/injection, schedule: Q01DX001 (ip), vehicle: Klucel (hydroxypropylcellulose) (HPC).
Setting [12] is: dose: 25.0 mg/kg/injection, schedule: Q04DX003 (ip), vehicle: Klucel (hydroxypropylcellulose) (HPC).
Setting [13] is: dose: 25.0 mg/kg/injection, schedule: Q01DX009 (ip), vehicle: Klucel (hydroxypropylcellulose) (HPC).
Where [14] appears, read: dose: 50.0 mg/kg/injection, schedule: Q01DX009 (ip), vehicle: saline with Tween-80.
[15] abbreviates: dose: 100.0 mg/kg/injection, schedule: Q01DX009 (ip), vehicle: saline with Tween-80.
[16] abbreviates: dose: 100.0 mg/kg/injection, schedule: Q04DX003 (ip), vehicle: saline with Tween-80.

On to `CCCCCCCCC(=O)N1CC1`, for which the T/C under setting [1] is 94 % of control; the T/C under setting [2] was 105 % of control; the T/C under setting [3] was 94 % of control; the T/C under setting [4] is 96 % of control; the T/C under setting [5] was 96 % of control; the T/C under setting [6] is 98 % of control.

Regarding `CCOC(=O)C(=O)N(CC)CC`, the T/C (dose: 100.0 mg/kg/injection, schedule: Q04DX002 (ip), vehicle: Klucel (hydroxypropylcellulose) (HPC)) is 98 % of control; the T/C (dose: 200.0 mg/kg/injection, schedule: Q04DX002 (ip), vehicle: Klucel (hydroxypropylcellulose) (HPC)) is 98 % of control; the T/C (dose: 400.0 mg/kg/injection, schedule: Q04DX002 (ip), vehicle: Klucel (hydroxypropylcellulose) (HPC)) is 88 % of control.

As to `O=P1(c2ccccc2)CCc2[nH]c3ccc(Cl)cc3c2C1` (stereo not drawn), the T/C was 100 % of control under setting [4], 107 % of control under setting [6] and 112 % of control under setting [7].

In the case of `CCOC(=O)c1cc(C(=O)OC)[nH]c(=O)c1C#N`, the T/C under setting [3] is 93 % of control; the T/C under setting [4] was 92 % of control; the T/C under setting [5] is 92 % of control; the T/C under setting [6] is 92 % of control; the T/C under setting [8] is 90 % of control; the T/C under setting [7] was 88 % of control.

As to `Cc1ccc(C)c(NC(=O)Nc2ccccc2F)c1`, the T/C (dose: 100.0 mg/kg/injection, schedule: Q01DX009 (ip), vehicle: carboxymethylcellulose (CMC)) is 89 % of control; the T/C (dose: 200.0 mg/kg/injection, schedule: Q01DX009 (ip), vehicle: carboxymethylcellulose (CMC)) was 86 % of control; the T/C (dose: 400.0 mg/kg/injection, schedule: Q01DX009 (ip), vehicle: carboxymethylcellulose (CMC)) is 87 % of control.

On to `S=P(c1ccccc1)(c1cccc2ccccc12)c1cccc2ccccc12`, for which the T/C is 93 % of control (dose: 100.0 mg/kg/injection, schedule: Q01DX001 (ip), vehicle: saline); 96 % of control (dose: 200.0 mg/kg/injection, schedule: Q01DX001 (ip), vehicle: saline); 93 % of control (dose: 400.0 mg/kg/injection, schedule: Q01DX001 (ip), vehicle: saline).

For `O=C(NNC(=O)Nc1ccc(C2=NCCN2)cc1)Nc1ccc(C2=NCCN2)cc1`, the T/C is, setting by setting: (dose: 8.0 mg/kg/injection, schedule: Q01DX Z (ip), vehicle: carboxymethylcellulose (CMC)) 95 % of control; (dose: 16.0 mg/kg/injection, schedule: Q01DX Z (ip), vehicle: carboxymethylcellulose (CMC)) 98 % of control; (dose: 32.0 mg/kg/injection, schedule: Q01DX Z (ip), vehicle: carboxymethylcellulose (CMC)) 108 % of control; (dose: 64.0 mg/kg/injection, schedule: Q01DX Z (ip), vehicle: carboxymethylcellulose (CMC)) 165 % of control.

On to `C/C(=N/NC(=O)c1ccccc1)C(=O)c1ccccc1`, for which the T/C was 101 % of control under setting [9], 97 % of control under setting [10] and 98 % of control under setting [11].

As for `O=C(/C=C/C(=O)Oc1ccc(Cl)cc1)Oc1ccc(Cl)cc1`, the T/C is, setting by setting: under setting [9], 96 % of control; under setting [3], 102 % of control; under setting [4], 97 % of control; under setting [10], 101 % of control; under setting [5], 102 % of control; under setting [6], 108 % of control. In addition, the T/C under setting [11] is 99 % of control, the T/C under setting [8] is 100 % of control and the T/C under setting [7] was 107 % of control.

On to `CCN(CC)CCOc1cccc(O)c1`, for which the T/C under setting [12] was 94 % of control; the T/C under setting [2] was 97 % of control; the T/C under setting [9] is 93 % of control; the T/C under setting [4] was 100 % of control and 107 % of control; the T/C under setting [10] was 91 % of control.

For the compound `CN(C)CC1C2C=CC(C3CC23)C1CN(C)C` (stereo not drawn), the T/C is 113 % of control under setting [13]; 94 % of control under setting [12]; 107 % of control under setting [1]; 102 % of control under setting [2]; 108 % of control under setting [3]; 94 % of control and 92 % of control under setting [4]. For the same compound, the T/C under setting [6] is 89 % of control.

Take `C(#[C][Sn]([C]#Cc1ccccc1)([C]#Cc1ccccc1)[C]#Cc1ccccc1)c1ccccc1`: the T/C under setting [14] is 92 % of control; the T/C under setting [15] is 103 % of control; the T/C (dose: 200.0 mg/kg/injection, schedule: Q01DX009 (ip), vehicle: saline with Tween-80) is 95 % of control.

For `O=[N+]([O-])c1cccc(C[n+]2ccccc2C2OCCO2)c1`, the T/C (dose: 35.0 mg/kg/injection, schedule: Q01DX009 (ip), vehicle: saline) was 95 % of control.

Turning to `COc1cc2c(c(OC)c1OC)-c1ccc(SC)c(=O)cc1C(N(C)C)CC2` (stereo not drawn), the T/C under setting [5] was 93 % of control.

On to `O=C1c2ccccc2-c2cc(Br)c(NC(Cl)Cl)cc21`, for which the T/C by setting is: under setting [16], 94 % of control; (dose: 200.0 mg/kg/injection, schedule: Q04DX003 (ip), vehicle: saline with Tween-80) 93 % of control; (dose: 400.0 mg/kg/injection, schedule: Q04DX003 (ip), vehicle: saline with Tween-80) 94 % of control.

As for `CN1C(=O)CC2(CCN(CCCC(=O)c3ccc(F)cc3)CC2)C1=O`, the T/C is, setting by setting: (dose: 3.12 mg/kg/injection, schedule: Q01DX009 (ip), vehicle: saline) 103 % of control and 108 % of control; (dose: 6.25 mg/kg/injection, schedule: Q01DX009 (ip), vehicle: Klucel (hydroxypropylcellulose) (HPC)) 100 % of control; (dose: 6.25 mg/kg/injection, schedule: Q01DX009 (ip), vehicle: saline) 100 % of control and 101 % of control and 108 % of control; (dose: 12.5 mg/kg/injection, schedule: Q01DX009 (ip), vehicle: Klucel (hydroxypropylcellulose) (HPC)) 95 % of control; (dose: 12.5 mg/kg/injection, schedule: Q01DX009 (ip), vehicle: saline) 106 % of control and 112 % of control and 115 % of control; under setting [13], 101 % of control. Moreover, the T/C runs as follows: (dose: 25.0 mg/kg/injection, schedule: Q01DX009 (ip), vehicle: saline) 110 % of control; (dose: 25.0 mg/kg/injection, schedule: Q04DX003 (ip), vehicle: alcohol) 108 % of control; under setting [1], 110 % of control; (dose: 50.0 mg/kg/injection, schedule: Q01DX009 (ip), vehicle: saline) 120 % of control and 124 % of control; (dose: 50.0 mg/kg/injection, schedule: Q04DX003 (ip), vehicle: alcohol) 106 % of control; (dose: 100.0 mg/kg/injection, schedule: Q04DX003 (ip), vehicle: alcohol) 106 % of control.

On to `CC1(C)OCC(CO)([N+](=O)[O-])CO1`, for which the T/C is 92 % of control (dose: 12.5 mg/kg/injection, schedule: Q04DX003 (ip), vehicle: saline with Tween-80); 108 % of control (dose: 25.0 mg/kg/injection, schedule: Q01DX009 (ip), vehicle: saline with Tween-80); 93 % of control (dose: 25.0 mg/kg/injection, schedule: Q04DX003 (ip), vehicle: saline with Tween-80); 108 % of control under setting [14]; 95 % of control (dose: 50.0 mg/kg/injection, schedule: Q04DX003 (ip), vehicle: saline with Tween-80); 108 % of control under setting [15]. Besides, the T/C by setting is: under setting [16], 100 % of control; (dose: 150.0 mg/kg/injection, schedule: Q04DX003 (ip), vehicle: saline with Tween-80) 94 % of control.

On to `CCCc1nc(N)[nH]c(=O)c1CCCCc1ccccc1`, for which the T/C (dose: 100.0 mg/kg/injection, schedule: Q04DX003 (ip), vehicle: saline) is 96 % of control; the T/C (dose: 200.0 mg/kg/injection, schedule: Q04DX003 (ip), vehicle: saline) is 110 % of control; the T/C (dose: 400.0 mg/kg/injection, schedule: Q04DX003 (ip), vehicle: saline) is 100 % of control.
